Active and inactive are the calls of the source. The rule behind the calls is not given here.
Tests used:
BaF3 [1] = assay: Blockade of full length human Bcr-Abl expressed in mouse Ba/F3 cells assessed as inhibition of STAT5 phosphorylation; format: cell-based
BaF3 [2] = assay: Blockade of Bcr-Abl-T315I mutant expressed in mouse Ba/F3 cells assessed as inhibition of […] phosphorylation; format: cell-based; conditions: Homo sapiens
BaF3 [3] = assay: Apoptosis inducing activity in Ba/F3 cells assessed as caspase 3 activation after 4 hrs; format: functional, cell-based; conditions: Mus musculus
Bcr-Abl [4] = assay: Apoptosis inducing activity in Bcr-Abl cells assessed as caspase 3 activation after 4 hrs; format: functional, cell-based; conditions: Homo sapiens
Homo sapiens [5] = organism: Homo sapiens; assay: Apoptosis inducing effect in Bcr-Abl-T315I cells assessed as caspase 3 activation after 4 hrs; format: functional, cell-based
Bcr-Abl [6] = assay: Apoptosis inducing activity in Bcr-Abl cells assessed as induction of DNA fragmentation at 2 uM after 24 hrs; format: functional, cell-based; conditions: Homo sapiens
Homo sapiens [7] = organism: Homo sapiens; assay: Apoptosis inducing activity in Bcr-Abl-T315I cells assessed as induction of DNA fragmentation at 2 uM after 24 hrs; format: functional, cell-based
BaF3 [8] = assay: Apoptosis inducing activity in Ba/F3 cells assessed as induction of DNA fragmentation at 2 uM after 24 hrs; format: functional, cell-based; conditions: Mus musculus
[9] = molecular target: Tyrosine-protein kinase ABL1 (Homo sapiens, UniProt P00519)
[10] = molecular target: Tyrosine-protein kinase ABL1 (Homo sapiens, UniProt P00519, T315I); assay: Inhibition of Abl-T315I mutant
[11] = molecular target: Proto-oncogene tyrosine-protein kinase Src (Homo sapiens, UniProt P12931); assay: Inhibition of Src
Chain of Proto-oncogene tyrosine-protein kinase Src (P12931 2-536 limits assumed): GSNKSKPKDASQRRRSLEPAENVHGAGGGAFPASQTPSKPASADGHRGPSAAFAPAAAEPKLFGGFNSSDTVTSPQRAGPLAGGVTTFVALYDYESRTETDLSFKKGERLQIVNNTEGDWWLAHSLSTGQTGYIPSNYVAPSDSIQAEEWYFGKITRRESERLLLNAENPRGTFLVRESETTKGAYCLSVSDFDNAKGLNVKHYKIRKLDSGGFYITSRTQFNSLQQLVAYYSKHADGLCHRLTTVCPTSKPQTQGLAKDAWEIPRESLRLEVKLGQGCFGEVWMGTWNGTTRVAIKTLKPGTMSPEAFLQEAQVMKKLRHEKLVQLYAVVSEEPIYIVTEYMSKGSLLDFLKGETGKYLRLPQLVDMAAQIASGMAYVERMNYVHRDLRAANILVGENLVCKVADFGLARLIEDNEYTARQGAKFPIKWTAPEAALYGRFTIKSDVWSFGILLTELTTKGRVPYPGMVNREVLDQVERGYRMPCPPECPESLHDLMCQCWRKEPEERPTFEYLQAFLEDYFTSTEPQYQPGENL

## Cc1cc(-c2cc(O)ccc2Cl)cc2nnc(Nc3ccc(S(=O)(=O)NCCN4CCCC4)cc3)nc12
BaF3 [1]
  Activity: Active
BaF3 [2]
  Activity: Active
BaF3 [3]
  Activity: inactive
Bcr-Abl [4]
  Activity: Active
Homo sapiens [5]
  Activity: Active
Bcr-Abl [6]
  Activity: Active
Homo sapiens [7]
  Activity: Active
BaF3 [8]
  Activity: inactive

## Cc1cccc(C)c1-c1cc(C)c2nc(Nc3ccc(OCCN4CCCC4)cc3)nnc2c1
[9]
  Ki: 11 nM
[10]
  Ki: 4240 nM

## Cc1cc(-c2cc(O)ccc2Cl)cc2nnc(Nc3ccc(OCCN4CCCC4)cc3)nc12
[11]
  Ki: 1.3 nM

— ChEMBL document CHEMBL1140465, “The design and preliminary structure-activity relationship studies of benzotriazines as potent inhibitors of Abl and Abl-T315I enzymes” (Bioorg Med Chem Lett, 2007)
